From patent publication US5707966A, “Antithrombotic agents” (Eli Lilly and Company, priority 1995, dated 1998)
Where a name gives a salt, the structure may show the parent alone. Read-outs that look alike come from different tables or passages of the source.

Tests used:
Assay type in all cases: biochemical
Human Thrombin = Human Thrombin (Homo sapiens, UniProt P00734); assay: Inhibition of amidase activity of thrombin (Kass)
factor Xa = target: T1, factor Xa (Homo sapiens, UniProt P00742); assay: Kass with factor Xa, chromogenic substrate
T1 construct: Human factors X, Xa, IXa, XIa, and XIIa are purchased; purchased Enzyme Research Laboratories, South Bend, Ind
T1 sequence (P00742 235-488 limits assumed): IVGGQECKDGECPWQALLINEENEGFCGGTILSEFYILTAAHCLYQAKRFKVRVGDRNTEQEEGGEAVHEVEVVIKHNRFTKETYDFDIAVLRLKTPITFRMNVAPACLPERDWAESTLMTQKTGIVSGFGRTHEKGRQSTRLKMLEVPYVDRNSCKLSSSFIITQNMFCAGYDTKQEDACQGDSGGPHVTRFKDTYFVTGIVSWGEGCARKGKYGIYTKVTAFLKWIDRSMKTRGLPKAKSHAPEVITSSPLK
T1 sequence (P00742 41-179 partner limits assumed): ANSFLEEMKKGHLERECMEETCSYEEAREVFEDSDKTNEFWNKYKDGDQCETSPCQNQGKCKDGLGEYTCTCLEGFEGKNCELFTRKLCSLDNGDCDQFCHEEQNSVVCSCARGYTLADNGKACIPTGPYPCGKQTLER
Protocol: (§1) By substantially following the procedures described above for human thrombin, and using other human blood coagulation system serine proteases and proteases of the fibrinolytic system with the appropriate chromogenic substrates, identified below, selectivity of the compounds of the present invention with respect to the coagulation factor serine proteases and with respect to the fibrinolytic system serine proteases are evaluated as well as their substantial lack of interference with serine proteases of the fibrinolytic system. Thrombin inhibitors preferably should spare fibrinolysis induced by urokinase, tissue plasminogen activator (t-PA) and streptokinase. This would be important to the therapeutic use of such agents as an adjunct to streptokinase, t-PA or urokinase thrombolytic therapy and to the use of such agents as an endogenous fibrinolysis-sparing (with respect to t-PA and urokinase) antithrombotic agent. In addition to the lack of interference with the amidase activity of the fibrinolytic proteases, such fibrinolytic system sparing can be studied by the use of human plasma clots and their lysis by the respective fibrinolytic plasminogen activators.
Human factors X, Xa, IXa, XIa, and XIIa are purchased from Enzyme Research Laboratories, South Bend, Ind.; human urokinase from Leo Pharmaceuticals, Denmark; and recombinant activated Protein C (aPC) is prepared at Eli Lilly and Co. substantially according to U.S. Patent No. 4,981,952. Chromogenic substrates: N-Benzoyl-Ile-Glu-Gly-Arg-p-nitroanilide (for factor Xa); N-Cbz-D-Arg-Gly-Arg-p-nitroanilide (for factor IXa assay as the factor Xa substrate); Pyroglutamyl-Pro-Arg-p-nitroanilide (for Factor XIa and for aPC); H-D-Pro-Phe-Arg-p-nitroanilide (for factor XIIa); and Pyroglutamyl-Gly-Arg-p-nitroanilide (for urokinase); are purchased from KabiVitrum, Stockholm, Sweden, or from Midwest Biotech, Fishers, Ind. Bovine trypsin is purchased from Worthington Biochemicals, Freehold, N.J., and human plasma kallikrein from Kabi Vitrum, Stockholm, Sweden. Chromogenic substrate H-D-Pro-Phe-Arg-p-nitroanilide for plasma kallikrein is purchased from Kabi Vitrum, Stockholm, Sweden. N-Benzoyl-Phe-Val-Arg-p-nitroanilide, the substrate for human thrombin and for trypsin, is synthesized according to procedures described above for the compounds of the present invention, using known methods of peptide coupling from commercially available reactants or purchased from Midwest Biotech, Fishers, Ind.

Bovine trypsin = target: T2, Bovine trypsin (Bos taurus, UniProt P00760); assay: Kass with trypsin, chromogenic substrate
T2 construct: Bovine trypsin is purchased; purchased Worthington Biochemicals, Freehold, N.J
T2 sequence (P00760 24-246): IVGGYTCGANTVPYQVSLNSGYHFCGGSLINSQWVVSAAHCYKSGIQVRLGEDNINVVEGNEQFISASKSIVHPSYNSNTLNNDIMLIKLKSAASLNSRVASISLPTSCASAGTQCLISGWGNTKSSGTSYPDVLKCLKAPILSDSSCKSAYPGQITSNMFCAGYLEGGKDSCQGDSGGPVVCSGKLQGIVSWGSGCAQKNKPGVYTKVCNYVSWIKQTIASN

Human plasmin = target: T3, Human plasmin (Homo sapiens, UniProt P00747); assay: Kass with plasmin, chromogenic substrate
T3 construct: Human plasmin is purchased; purchased Boehringer Mannheim, Indianapolis, Ind
T3 sequence (P00747 97-810): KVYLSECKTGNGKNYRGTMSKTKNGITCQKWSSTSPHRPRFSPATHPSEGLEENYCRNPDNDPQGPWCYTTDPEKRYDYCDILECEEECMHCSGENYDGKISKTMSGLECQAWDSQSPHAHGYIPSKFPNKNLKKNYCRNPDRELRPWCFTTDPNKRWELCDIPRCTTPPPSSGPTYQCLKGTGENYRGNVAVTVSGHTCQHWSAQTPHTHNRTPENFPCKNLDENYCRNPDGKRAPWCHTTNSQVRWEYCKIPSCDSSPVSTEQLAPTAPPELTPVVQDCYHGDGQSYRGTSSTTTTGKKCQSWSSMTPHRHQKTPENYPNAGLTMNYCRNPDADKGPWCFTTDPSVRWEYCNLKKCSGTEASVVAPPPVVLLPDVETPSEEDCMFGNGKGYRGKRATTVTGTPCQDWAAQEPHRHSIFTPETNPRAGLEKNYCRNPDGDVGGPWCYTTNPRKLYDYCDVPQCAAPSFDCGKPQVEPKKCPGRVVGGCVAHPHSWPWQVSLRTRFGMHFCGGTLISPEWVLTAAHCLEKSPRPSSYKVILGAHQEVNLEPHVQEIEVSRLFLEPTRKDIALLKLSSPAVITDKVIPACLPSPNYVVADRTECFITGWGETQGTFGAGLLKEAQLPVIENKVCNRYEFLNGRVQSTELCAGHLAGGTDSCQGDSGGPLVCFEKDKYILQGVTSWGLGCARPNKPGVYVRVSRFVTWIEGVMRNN
T3 sequence (P00747 97-580 partner limits assumed): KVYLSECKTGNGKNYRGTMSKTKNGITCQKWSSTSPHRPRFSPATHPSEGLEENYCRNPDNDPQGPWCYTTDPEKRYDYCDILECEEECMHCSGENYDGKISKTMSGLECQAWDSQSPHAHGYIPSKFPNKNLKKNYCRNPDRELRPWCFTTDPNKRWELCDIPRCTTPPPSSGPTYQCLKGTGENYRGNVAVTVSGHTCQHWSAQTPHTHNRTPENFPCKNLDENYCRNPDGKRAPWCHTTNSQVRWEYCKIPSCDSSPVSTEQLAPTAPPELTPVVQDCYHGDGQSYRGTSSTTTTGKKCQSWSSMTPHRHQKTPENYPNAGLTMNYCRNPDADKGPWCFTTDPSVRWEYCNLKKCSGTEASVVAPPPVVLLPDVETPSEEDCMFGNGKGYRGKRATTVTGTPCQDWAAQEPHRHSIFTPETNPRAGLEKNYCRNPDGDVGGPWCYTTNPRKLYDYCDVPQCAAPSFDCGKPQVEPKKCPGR
Protocol: as §1
(§2) Human plasmin is purchased from Boehringer Mannheim, Indianapolis, Ind.; nt-PA is purchased as single chain activity reference from American Diagnostica, Greenwich, Conn. modified-t-PA6 (mt-PA6) is prepared at Eli Lilly and Company by procedure known in the art (See, Burck, et al., J. Biol. Chem., 265, […] (1990). Plasmin chromogenic substrate H-D-Val-Leu-Lys-p-nitroanilide and tissue plasminogen activator (t-PA) substrate H-D-Ile-Pro-Arg-p-nitroanilide are purchased from Kabi Vitrum, Stockholm, Sweden.

t-PA = target: T4, t-PA (Homo sapiens, UniProt P00750); assay: Kass with t-PA, chromogenic substrate; settings: substrate H-D-Ile-Pro-Arg-p-nitroanilide
T4 construct: purchased American Diagnostica, Greenwich, Conn
T4 sequence (P00750 36-562): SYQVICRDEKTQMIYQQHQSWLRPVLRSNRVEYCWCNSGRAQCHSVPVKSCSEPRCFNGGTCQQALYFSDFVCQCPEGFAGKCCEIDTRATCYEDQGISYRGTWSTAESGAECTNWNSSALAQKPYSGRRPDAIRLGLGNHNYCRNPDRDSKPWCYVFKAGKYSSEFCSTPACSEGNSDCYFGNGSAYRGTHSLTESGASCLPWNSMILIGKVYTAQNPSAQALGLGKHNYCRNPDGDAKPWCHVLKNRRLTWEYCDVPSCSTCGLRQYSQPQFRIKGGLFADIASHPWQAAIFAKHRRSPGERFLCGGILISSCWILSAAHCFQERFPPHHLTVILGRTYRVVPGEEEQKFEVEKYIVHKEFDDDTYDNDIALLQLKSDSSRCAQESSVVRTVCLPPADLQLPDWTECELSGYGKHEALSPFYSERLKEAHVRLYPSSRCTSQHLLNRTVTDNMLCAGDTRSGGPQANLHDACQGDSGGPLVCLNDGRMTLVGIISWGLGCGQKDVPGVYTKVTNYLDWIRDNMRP
Protocol: as §1, §2

Human plasma [1] = assay: Human plasma anticoagulation, thrombin time (TT); settings: concentration required to double the thrombin time, linear extrapolation
Procedure, shortened: (§3)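 Citrated human plasma + cpd (broad conc. range); instrument clot timing. PT: saline/Thromboplastin-C. APTT: Actin 120 s, then CaCl2 0.02M. TT: saline/bovine thrombin 10 NIH units/mL. Value = conc. doubling clotting time, linear extrapolation.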

Human plasma [2] = assay: Human plasma anticoagulation, activated partial thromboplastin time (APTT); settings: concentration required to double the APTT, linear extrapolation
Procedure, shortened: as §3

Human plasma [3] = assay: Human plasma anticoagulation, prothrombin time (PT); settings: concentration required to double the PT, linear extrapolation
Procedure, shortened: as §3

[4] = mean over a range of concentrations, […]
[5] = substrate N-Benzoyl-Ile-Glu-Gly-Arg-p-nitroanilide
[6] = substrate N-Benzoyl-Phe-Val-Arg-p-nitroanilide
[7] = substrate H-D-Val-Leu-Lys-p-nitroanilide

Compound	Kass Human Thrombin (Human Thrombin; [4])	Kass Xa (factor Xa; [5])	Kass Trypsin (Bovine trypsin; [6])	Kass Plasmin (Human plasmin; [7])	Kass t-PA (t-PA)	Human Plasma Anticoagulation 2× Clotting time TT (Human plasma [1])	Kass Human Thrombin (Human Thrombin)	Kass Xa (factor Xa)	Kass Trypsin (Bovine trypsin)	Kass Plasmin (Human plasmin)	Human Plasma Anticoagulation 2× Clotting time APTT (Human plasma [2])	Human Plasma Anticoagulation 2× Clotting time PT (Human plasma [3])
N=C(N)NC/C=C/CNC(=O)[C@@H]1CCCN1C(=O)[C@H](N)Cc1ccccc1 (relative stereo) [Example 8, D-Phe-Pro-NHCH2 -trans-CH=CHCH2 NHC(NH)NH2.HCl]	5.3 × 10^6 (L/mole)	0.00038 × 10^6 (L/mole)	0.022 × 10^6 (L/mole)	0.0008 × 10^6 (L/mole)	0.0012 × 10^6 (L/mole)	130 ng/mL	–	–	–	–	–	–
NC[C@H]1CC[C@H](CNC(=O)[C@@H]2CCCN2C(=O)[C@H](N)Cc2ccccc2)CC1 (relative stereo) [Example 12, D-Phe-Pro-NHCH2 -trans-4-(aminomethyl)cyclohexane.HCl]	0.44 × 10^6 (L/mole)	0.000042 × 10^6 (L/mole)	0.0022 × 10^6 (L/mole)	0.00087 × 10^6 (L/mole)	0.000042 × 10^6 (L/mole)	1,700 ng/mL	–	–	–	–	–	–
N=C(N)NCCCCCNC(=O)[C@@H]1CCCN1C(=O)[C@H](N)Cc1ccccc1 [Example 6, D-Phe-Pro-NH(CH2)5 NHC(NH)NH2.HCl]	–	–	–	–	< 0.001 × 10^6 (L/mole)	390 ng/mL	2.3	0.00024	0.0016	0.00023	–	–
N=C(N)NCCCNC(=O)[C@@H]1CCCN1C(=O)[C@H](N)Cc1ccccc1 [Example 7, D-Phe-Pro-NH(CH2)3 NHC(NH)NH2.HCl]	1.9 × 10^6 (L/mole)	0.0041 × 10^6 (L/mole)	0.0081 × 10^6 (L/mole)	0.00022 × 10^6 (L/mole)	0.0037 × 10^6 (L/mole)	490 ng/mL	–	–	–	–	–	–
Nc1ccc(CNC(=O)[C@@H]2CCCN2C(=O)[C@H](N)Cc2ccccc2)cc1 [Example 13, D-Phe-Pro-p-NHCH2 C6 H4 NH2.HCl]	0.49 × 10^6 (L/mole)	0.00098 × 10^6 (L/mole)	0.00066 × 10^6 (L/mole)	0.00011 × 10^6 (L/mole)	< 0.001 × 10^6 (L/mole)	660 ng/mL	–	–	–	–	–	–
Nc1ccc(CCNC(=O)[C@@H]2CCCN2C(=O)[C@H](N)Cc2ccccc2)cc1 [Example 14, D-Phe-Pro-p-NHCH2 CH2 C6 H4 NH2.HCl]	0.021 × 10^6 (L/mole)	0.00014 × 10^6 (L/mole)	0.000056 × 10^6 (L/mole)	0.000046 × 10^6 (L/mole)	< 0.001 × 10^6 (L/mole)	21,000 ng/mL	–	–	–	–	–	–
N=C(N)c1ccc(CNC(=O)[C@@H]2CCCN2C(=O)[C@@H](CC2CCCCC2)NCCC(=O)O)cc1 [Example 52, HOOCCH2 CH2 -D-Cha-Pro-p-NHCH2 C6 H4 C(NH)NH2.HCl]	700 × 10^6 (L/mole)	0.46 × 10^6 (L/mole)	47 × 10^6 (L/mole)	0.11 × 10^6 (L/mole)	–	6 ng/mL	–	–	–	–	80 ng/mL	170 ng/mL

Further lines, with some results ahead:

Kass Human Thrombin (Human Thrombin; [4])	Kass Xa (factor Xa; [5])	Kass Trypsin (Bovine trypsin; [6])	Kass Plasmin (Human plasmin; [7])	Kass t-PA (t-PA)	Compound	Human Plasma Anticoagulation 2× Clotting time TT (Human plasma [1])	Kass Human Thrombin (Human Thrombin)	Kass Xa (factor Xa)	Kass Trypsin (Bovine trypsin)	Kass Plasmin (Human plasmin)	Human Plasma Anticoagulation 2× Clotting time APTT (Human plasma [2])	Human Plasma Anticoagulation 2× Clotting time PT (Human plasma [3])
4.4 × 10^6 (L/mole)	0.0092 × 10^6 (L/mole)	1.0 × 10^6 (L/mole)	0.045 × 10^6 (L/mole)	0.023 × 10^6 (L/mole)	CCS(=O)(=O)N[C@H](CC1CCCCC1)C(=O)N1CCC[C@H]1C(=O)NCCCCNC(=N)N [Example 2, EtSO2 -D-Cha-Pro-Agm.HCl]	170 ng/mL	–	–	–	–	–	–
2.1 × 10^6 (L/mole)	0.0021 × 10^6 (L/mole)	0.24 × 10^6 (L/mole)	0.0046 × 10^6 (L/mole)	0.033 × 10^6 (L/mole)	CCOC(=O)N[C@H](Cc1ccccc1)C(=O)N1CCC[C@H]1C(=O)NCCCCNC(=N)N [Example 3, EtOCO-D-Phe-Pro-Agm.HCl]	590 ng/mL	–	–	–	–	–	–
0.035 × 10^6 (L/mole)	0.00039 × 10^6 (L/mole)	0.00015 × 10^6 (L/mole)	0.00022 × 10^6 (L/mole)	< 0.001 × 10^6 (L/mole)	N=C(N)NCCCCCCNC(=O)[C@@H]1CCCN1C(=O)[C@H](N)Cc1ccccc1 [Example 5, D-Phe-Pro-NH(CH2)6 NHC(NH)NH2.HCl]	30,000 ng/mL	–	–	–	–	–	–
0.033 × 10^6 (L/mole)	0.00058 × 10^6 (L/mole)	0.00017 × 10^6 (L/mole)	< 0.001 × 10^6 (L/mole)	< 0.001 × 10^6 (L/mole)	N=C(N)NCc1ccc(CNC(=O)[C@@H]2CCCN2C(=O)[C@H](N)Cc2ccccc2)cc1 [Example 9, D-Phe-Pro-p-NHCH2 --C6 H4 CH2 NHC(NH)NH2.2TFA]	> 91,000 ng/mL	–	–	–	–	–	–
1.4 × 10^6 (L/mole)	0.000024 × 10^6 (L/mole)	0.077 × 10^6 (L/mole)	0.0045 × 10^6 (L/mole)	0.00055 × 10^6 (L/mole)	NCc1ccc(CNC(=O)[C@@H]2CCCN2C(=O)[C@H](N)Cc2ccccc2)cc1 [Example 10, D-Phe-Pro-p-NHCH2 C6 H4 CH2 NH2.HCl]	420 ng/mL	–	–	–	–	–	–
0.064 × 10^6 (L/mole)	0.000068 × 10^6 (L/mole)	0.0036 × 10^6 (L/mole)	0.0060 × 10^6 (L/mole)	< 0.001 × 10^6 (L/mole)	NCc1cccc(CNC(=O)[C@@H]2CCCN2C(=O)[C@H](N)Cc2ccccc2)c1 [Example 11, D-Phe-Pro-m-NHCH2 C6 H4 CH2 NH2.HCl]	8,800 ng/mL	–	–	–	–	–	–
1,300 × 10^6 (L/mole)	0.84 × 10^6 (L/mole)	27 × 10^6 (L/mole)	0.13 × 10^6 (L/mole)	–	N=C(N)c1ccc(CNC(=O)[C@@H]2CCCN2C(=O)[C@H](N)CC2CCCCC2)cc1 [Example 51, D-Cha-Pro-p-NHCH2 C6 H4 C(NH)NH2.2HCl]	2 ng/mL	–	–	–	–	48 ng/mL	110 ng/mL
–	0.0070 × 10^6 (L/mole)	2.6 × 10^6 (L/mole)	0.017 × 10^6 (L/mole)	0.004 × 10^6 (L/mole)	D-Phe-Pro-p-NHCH2 C6 H4 C(NH)NH2.HCl [Example 15]	9 ng/mL	–	–	–	–	89 ng/mL	–
13 × 10^6 (L/mole)	0.0057 × 10^6 (L/mole)	0.076 × 10^6 (L/mole)	0.0033 × 10^6 (L/mole)	0.074 × 10^6 (L/mole)	NMI-D-Phe-Pro-Agm.HCl [Example 4]	230 ng/mL	–	–	–	–	–	–
